In one data set the test system is mature MRSA biofilm. In kind it is cell-based, methicillin-resistant S. aureus. As for the experimental part:
Minimum biofilm eradication concentration (MBEC) assay was carried out with a modified microtiter plate method as described previously ([Gao et al., 2017]).
FIGURE 4 Minimum biofilm eradication concentration (MBEC) of peptides against mature MRSA biofilm. All data represent means ± SD from three independent experiments performed in triplicate (^∗∗∗∗P < 0.0001 versus the viability of the corresponding concentration of nigrocin-HL).

For data set [1], the system named is human keratinocyte cell line HaCaT. In kind it is cell-based. On the procedure:
(§1) Human keratinocyte cell line HaCaT and human bronchial epithelial cell line 16HBE were obtained from the ATCC. Cells were harvested and diluted to 5 × 10^4 cells/ml using fresh medium. Ninety-nine microliters of diluted cells and 1 μl of peptides (final concentration ranging from 1 to 512 μM, twofold serial dilution, five duplicates) were mixed and seeded into 96-well culture plates. After incubation for 24 h, 10 μl CCK-8 was added into each well, followed by incubation at 37°C for 2 h. Absorbance of each well was determined, and the viabilities of cells were calculated as percentages of the control.
(§2) FIGURE 5 Toxicities of nigrocin-HL and its analog nigrocin-HLM in vitro and in vivo. Cytotoxicity of nigrocin-HL and nigrocin-HLM against (A) HaCaT and (B) 16HBE. Living cells after treatment with peptides were measured utilizing CCK8 assays, and viability was calculated relative to the untreated control. (C) Hemolysis of nigrocin-HL and nigrocin-HLM was determined against horse erythrocytes. All data represent mean ± SD from three independent experiments performed in triplicate (^∗P < 0.05, ^∗∗∗P < 0.001, compared with nigrocin-HL control group; ^###P < 0.001, compared with nigrocin-HLM control group). (D) In vivo toxicities of these two AMPs. Survival rate of mice in 7 days after single i.p. injection of nigrocin-HL and nigrocin-HLM (20 and 40 mg/kg) was recorded.

The subject of data set [2] is human bronchial epithelial cell line 16HBE. Type of data set: cell-based. As for the experimental part:
as §1, §2

For another data set, the system named is S. aureus (NCTC10788). In kind it is cell-based, Staphylococcus aureus. The conditions noted are these: for MIC: NCTC10788, 16 h; for MBC: NCTC10788, 18 h. As for the experimental part:
(§3) The antimicrobial activity of both natural and designed peptides was evaluated by MIC and MBC assays utilizing the broth dilution method. Microorganisms including S. aureus (NCTC10788), MRSA (NCTC 12493 and ATCC43300), Escherichia coli (E. coli) (NCTC 10418), Pseudomonas aeruginosa (P. aeruginosa) (ATCC 27853), Candida albicans (C. albicans) (NCYC 1467) and four clinical MRSA strains (DTMR8, DTMR24, DTMR37, and DTMR121) obtained at the First People’s Hospital of Zhenjiang, China were used. Molecular identification of these four clinical isolates was performed by PCR targeting mecA gene prior to use. After incubation of peptides (ranging from 1 μM to 512 μM, twofold serial dilution) and diluted microorganism cultures for 16 h, the absorbance values of the wells of the 96-well plates were detected at 550 nm with a Synergy HT plate reader (Biotech, United States) and the MICs were defined as the lowest concentration of peptides at which no apparent growth was detected. Ten microliters of culture in the wells were loaded onto Mueller-Hinton agar (MHA) medium and incubated at 37°C for another 18 h. The MBC of the peptide against a microbe was defined as the lowest concentration at which no evidence of colony growth was observed. Five replications were employed for all peptides with different concentrations and controls, and all measurements were made in triplicate.

Data set [3] concerns clinical MRSA strain DTMR37. Type of data set: cell-based, methicillin-resistant S. aureus. On the procedure: as §3
Data set [4] concerns clinical MRSA strain DTMR24. In kind it is cell-based, methicillin-resistant S. aureus. On the procedure:
as §3

A further data set concerns MRSA (NCTC12493). In kind it is cell-based, methicillin-resistant S. aureus. The conditions noted are these: NCTC12493, 16 h. On the procedure:
as §3

Data set [5] concerns clinical MRSA strain DTMR121. Type of data set: cell-based, methicillin-resistant S. aureus. As for the experimental part: as §3
Data set [6] has as its system clinical MRSA strain DTMR8. In kind it is cell-based, methicillin-resistant S. aureus. As for the experimental part: as §3
The test system of another data set is MRSA (ATCC43300). Type of data set: cell-based, methicillin-resistant S. aureus. As for the experimental part:
as §3

In data set [7] the test system is P. aeruginosa (ATCC27853). Type of data set: cell-based, Pseudomonas aeruginosa. As for the experimental part:
as §3

Another data set concerns C. albicans (NCYC1467). Type of data set: cell-based, Candida albicans. The conditions noted are these: for MIC: NCYC1467, 16 h; for MBC: NCYC1467, 18 h. On the procedure: as §3
In another data set the test system is horse erythrocytes. In kind it is cell-based. As for the experimental part: Hemolytic property of peptides was measured using erythrocytes prepared from defibrinated horse blood (TCS Biosciences, Botolph Claydon, Buckingham, United Kingdom) as indicated previously ([Wu et al., 2016]).
as §2

The next data set has as its system E. coli (NCTC10418). In kind it is cell-based, Escherichia coli. The note with it: for MIC: NCTC10418, 16 h. On the procedure: as §3
A further data set concerns BALB/c mice. Kind of data set: In vivo acute toxicity, 7-day mortality. The note with it: single i.p. injection. As for the experimental part: Mice were administered with 20.0 and 40 mg/kg of nigrocin-HL and nigrocin-HLM (i.p.) and a 7-day mortality was recorded.
as §2

Data set [8] is described as follows: Circular dichroism, percentage of α-helix by K2D3. Type of data set: physicochemical. The conditions noted are these: CD 190-250 nm, 20°C, 50% TFE in 10 mM ammonium acetate buffer, 100 μM peptide (legend: 50 μM). As for the experimental part: Additionally, circular dichroism (CD) analyses were carried out utilizing a JASCO J815 Spectropolarimeter (JASCO Inc., United States). Samples were measured within the range of 190-250 nm at 20°C. The parameters were set as: 200 nm/min scanning speed, a bandwidth of 1 nm, and 0.5 nm data pitch. Both peptide samples were dissolved in […] ammonium acetate buffer and 50% TFE in 10 mM ammonium acetate buffer at a concentration of 100 μM. The percentage of the α-helix structure was predicted by the website […]^2 ([Louis-Jeune et al., 2012]).

Where a SMILES comes first, the peptide text is derived from it.

`CC[C@H](C)[C@H](NC(=O)CNC(=O)[C@H](CO)NC(=O)[C@H](CC(C)C)NC(=O)[C@H](CC(C)C)NC(=O)CN)C(=O)N[C@@H](CC(C)C)C(=O)NCC(=O)N[C@@H](C)C(=O)NCC(=O)N[C@@H](CCCCN)C(=O)N[C@@H](CCCCN)C(=O)N[C@H](C(=O)N[C@H](C(=O)N[C@@H](Cc1ccccc1)C(N)=O)C(C)C)[C@@H](C)CC` [Nigrocin-HLM] (H-GLLSGILGAGKKIVF-NH2) returned an MBEC with mature MRSA biofilm of 8 µM. Besides, the “lowest dosage at which cell growth inhibition occurred” value in [1] and in data set [2] was more than 512 µM each time. The MIC (usually the smallest concentration in the dilution series that meets the test's criterion for growth inhibition) amounted to 2.94 µg/mL in the data set with S. aureus (NCTC10788); 1 µM in [3] (clinical strain DTMR37, 16 h); 1 µM in data set [4] (clinical strain DTMR24, 16 h); 4 µM in the data set on MRSA (NCTC12493); 1 µM in data set [5] (clinical strain DTMR121, 16 h); 1 µM in data set [6] (clinical strain DTMR8, 16 h). The MIC was found to be 1 µM with MRSA (ATCC43300) (ATCC43300, 16 h); 32 µM in data set [7] (ATCC27853, 16 h); 2.94 µg/mL with C. albicans (NCYC1467); 11.77 µg/mL in the data set with E. coli (NCTC10418). Besides, the MBC in the data set on S. aureus (NCTC10788) is 5.89 µg/mL; in data set [3] (clinical strain DTMR37, 18 h), 2.94 µg/mL; in data set [4] (clinical strain DTMR24, 18 h) it was 1.47/1.47 mg/l; in data set [5] (clinical strain DTMR121, 18 h), 1.47/1.47 mg/l; in data set [6] (clinical strain DTMR8, 18 h), 2.94 µg/mL; with MRSA (ATCC43300) (ATCC43300, 18 h), 5.89 µg/mL. In addition, the MBC in data set [7] (ATCC27853, 18 h) is 32 µM; with C. albicans (NCYC1467) it was 5.89 µg/mL; in the data set on E. coli (NCTC10418) (NCTC10418, 18 h), 23.55 µg/mL. The “concentration up to which devoid of hemolytic activity” value in the data set on horse erythrocytes is more than 128 µM. In addition, the “hemolytic activity (in words)” value in the data set with horse erythrocytes is “negligible hemolytic activity”. The 7-day mortality entry with BALB/c mice (20 mg/kg) and in the data set with BALB/c mice (40 mg/kg) was “no mortality was observed” each time.

Regarding `CC[C@H](C)[C@H](NC(=O)CNC(=O)[C@H](CO)NC(=O)[C@H](CC(C)C)NC(=O)[C@H](CC(C)C)NC(=O)CN)C(=O)N[C@@H](CC(C)C)C(=O)NCC(=O)N[C@@H](C)C(=O)NCC(=O)N[C@@H](CCCCN)C(=O)N[C@@H](CCCCN)C(=O)N[C@H](C(=O)N[C@H](C(=O)O)C(C)C)[C@@H](C)CC` [Nigrocin-HLD] (H-GLLSGILGAGKKIV-OH; N-terminus and C-terminus assumed), the values for the MIC with S. aureus (NCTC10788), in the data set with C. albicans (NCYC1467) and in the data set with E. coli (NCTC10418) were 42.43 µg/mL, 42.43 µg/mL and 84.87 µg/mL, respectively. For the same compound, the MBC in the data set with S. aureus (NCTC10788) was found to be 169.73 µg/mL; with C. albicans (NCYC1467) it was 339.46 µg/mL.

Turning to `CC[C@H](C)[C@H](NC(=O)CNC(=O)[C@H](CO)NC(=O)[C@H](CC(C)C)NC(=O)[C@H](CC(C)C)NC(=O)CN)C(=O)N[C@@H](CC(C)C)C(=O)NCC(=O)N[C@@H](C)C(=O)NCC(=O)N[C@@H](CCCCN)C(=O)N[C@@H](CCCCN)C(=O)N[C@H](C(=O)N[C@H](C(=O)N[C@H]1CSSC[C@@H](C(=O)O)NC(=O)[C@H](CC(C)C)NC(=O)CNC(=O)[C@H](CO)NC(=O)[C@H](CC(C)C)NC(=O)CNC1=O)C(C)C)[C@@H](C)CC` [Nigrocin-HL] (HELM PEPTIDE1{G.L.L.S.G.I.L.G.A.G.K.K.I.V.C.G.L.S.G.L.C}$PEPTIDE1,PEPTIDE1,15:R3-21:R3$$$V2.0; N-terminus and C-terminus assumed), the MBEC with mature MRSA biofilm was more than 16 µM. The “lowest dosage at which cell growth inhibition occurred” value in data set [1] and in data set [2] was 32 µM each time. The MIC with S. aureus (NCTC10788) came out at 62.70 µg/mL; with C. albicans (NCYC1467), 62.70 µg/mL; in the data set with E. coli (NCTC10418), 125.40 µg/mL. In addition, the MBC in the data set on S. aureus (NCTC10788) was determined as 250.81 µg/mL; with C. albicans (NCYC1467), 501.61 µg/mL. Further, the “Helicity (%)” value in [8] worked out at 31.28%. Further, in the data set with horse erythrocytes, the “hemolytic activity (in words)” value is given as “obvious hemolysis”. Further, the 7-day mortality entry in the data set on BALB/c mice (20 mg/kg) and with BALB/c mice (40 mg/kg) was “mice all died from day 3 to day 7” throughout.

Values taken from publication PMC6280737, “Modification Targeting the “Rana Box” Motif of a Novel Nigrocin Peptide From Hylarana latouchii Enhances and Broadens Its Potency Against Multiple Bacteria” (Frontiers in Microbiology, 2018).
